Test results from US20210038559A1, “CANNABINOIDS AND DERIVATIVES FOR PROMOTING IMMUNOGENICITY OF TUMOR AND INFECTED CELLS” (priority 2018, published 2021).
Read-outs that look alike come from different tables or passages of the source.

Assays:
[1] = system: MHC-I expression on COLO 205 cells; test: Phytocannabinoid MHC-I induction on COLO 205 cells, 0-100 μM, 48 hours; conditions: for MHC-I expression induction: COLO 205, endogenous cannabinoids; for Fold Induction: MHC-I expression on COLO 205 cells, relative to control cells treated only with buffer
Protocol: FIG. 4. Cell surface MHC class I expression was measured by flow cytometry (MFI).
Phytocannabinoids were tested for MHC-I-inducing activity on COLO 205 cells. Each cannabinoid was tested at a concentration range of 0-100 μM. […] “ND” indicates not determined.

[2] = system: MHC class I expression on COLO 205 cells; test: MHC class I expression on COLO 205 cells, 24 hours, flow cytometry (W6/32); conditions: for MFI: W6/32 staining; for fold induction at 10 µM / fold induction at 20 µM / fold induction at 30 µM / fold induction at 40 µM: Homo sapiens, COLO 205
Protocol: FIG. 2A-2F. […] Cells were treated for 24 hours and cell surface MHC class I expression was measured by flow cytometry.
Cannabigerol was also tested for its capacity to induce MHC class I expression in a human colorectal carcinoma cell line, COLO 205. The cells were treated with either 25 μM or 50 μM cannabigerol for 24 hours. Fluorophor (Alexa Fluor 488)-conjugated W6/32 antibody (Thermo Fisher) was used in a flow cytometry assay to quantitate MHC class I expression. […] Cannabigerol is only one of many cannabinoid-like molecules with potential biopharmaceutical activity. […] COLO 205 cells were treated with up to 40 μM of the cannabinoids 1-5 presented in Tables 1 and 2 and evaluated for cell surface MHC class I expression as described above for cannabigerol.

[3] = system: MHC-I expression by COLO 205 cells; test: cells; assay type: cell-based, human; conditions: for fold induction at 35 µM: Homo sapiens, COLO 205, 48 h, MHC-I expression, COLO 205 cells, compounds at 35 μM, 48 hours, flow cytometry (W6/32), read-out: Induction Fold
Protocol: A panel of synthetic cannabinoids (Cayman Chemical, #9002891) was tested for MHC class I-inducing capability in COLO 205 cells as described above. COLO 205 cells were treated with the compounds at a concentration of 35 μM and evaluated for cell surface MHC class I expression after 48 hours. Cells were harvested, stained with MHC-I mAb W6/32 (Thermo Fisher). MHC-I expression was determined by flow cytometry.

[4] = induction of MHC-I expression on COLO 205 cells, 0-100 μM, 48 hours

Molecule: CCCCC/C=C\C/C=C\C/C=C\C/C=C\CCCC(=O)NCCO [AEA, N-arachidonoylethanolamine, reference compound]
- MHC-I expression induction [1]: do not induce MHC-I expression

Molecule: CCCCC/C=C\C/C=C\C/C=C\C/C=C\CCCC(=O)OC(CO)CO [Example 2-AG, 2-Arachidonoylglycerol, reference compound]
- MHC-I expression induction [1]: do not induce MHC-I expression

Molecule: CCCCCc1cc(O)c2c(c1)OC(C)(CCC=C(C)C)C=C2 (stereo not shown) [Example 3, 2-methyl-2-(4-methyl-3-penten-1-yl)-7-pentyl-2H-1-benzopyran-5-ol]
- MFI ([2]; COLO 205, 10 μM): 120
- MFI ([2]; COLO 205, 20 μM): 148
- MFI ([2]; COLO 205, 30 μM): 177
- MFI ([2]; COLO 205, 40 μM): 280
- fold induction at 10 µM [2]: 0.99
- fold induction at 20 µM [2]: 1.22
- fold induction at 30 µM [2]: 1.46
- fold induction at 40 µM [2]: 2.31
- EC50 ([1]; Homo sapiens, COLO 205, 48 h): 20 µM
- Fold Induction ([1]; 0-100 μM, 48 hours): 1.6 Fold

Molecule: CCCCCc1cc(O)c2c(c1)OC(C)(C)c1ccc(C)cc1-2 [Example 4, 6,6,9-trimethyl-3-pentyl-6H-dibenzo[b,d]pyran-1-ol]
- MFI ([2]; COLO 205, 10 μM): 120
- MFI ([2]; COLO 205, 20 μM): 160
- MFI ([2]; COLO 205, 30 μM): 253
- MFI ([2]; COLO 205, 40 μM): 253
- fold induction at 10 µM [2]: 0.99
- fold induction at 20 µM [2]: 1.32
- fold induction at 30 µM [2]: 2.09
- fold induction at 40 µM [2]: 2.09
- EC50 ([1]; Homo sapiens, COLO 205, 48 h): 25 µM
- Fold Induction ([1]; 0-100 μM, 48 hours): 1.8 Fold

Molecule: CCCc1cc(O)c2c(c1)OC(C)(C)[C@@H]1CCC(C)=C[C@@H]21 [Example 5, 6aR,7,8,10aR-tetrahydro-6,6,9-trimethyl-3-propyl-6H-dibenzo[b,d]pyran-1-ol]
- MFI ([2]; COLO 205, 10 μM): 152
- MFI ([2]; COLO 205, 20 μM): 192
- MFI ([2]; COLO 205, 30 μM): 235
- MFI ([2]; COLO 205, 40 μM): 242
- fold induction at 10 µM [2]: 1.26
- fold induction at 20 µM [2]: 1.59
- fold induction at 30 µM [2]: 1.94
- fold induction at 40 µM [2]: 2
- EC50 ([1]; Homo sapiens, COLO 205, 48 h): 15 µM
- Fold Induction ([1]; 0-100 μM, 48 hours): 3.0 Fold

Molecule: O=C(Nc1cccc2ccccc12)c1cn(CCCCCF)c2ccncc12 [Example 373, 1-(5-fluoropentyl)-N-(naphthalen-1-yl)-1H-pyrrolo[3,2-c]pyridine-3-carboxamide]
- fold induction at 35 µM [3]: 0.49

Molecule: CS(=O)(=O)O.Cc1c(C(=O)c2cccc3ccccc23)c2cccc3c2n1C(CN1CCOCC1)CO3 (stereo not shown) [Example 376, [2,3-dihydro-5-methyl-3-(4-morpholinylmethyl)pyrrolo[1,2,3-de]-1,4-benzoxazin-6-yl]-1-naphthalenyl-methanone, methanesulfonate]
- Induction Fold [3]: 0.32 Fold

Molecule: C=C(C)[C@@H]1CCC(C)=C[C@H]1C1=C(O)C(=O)C(CCCCC)=CC1=O [Example 377, 3-hydroxy-2-[(1R,6R)-3-methyl-6-(1-methylethenyl)-2-cyclohexen-1-yl]-5-pentyl-2,5-cyclohexadiene-1,4-dione]
- fold induction at 35 µM [3]: 0.3

Molecule: CCCCCCC(C)(C)c1cc(O)c2c(c1)OC(C)(C)[C@@H]1CC=C(CO)C[C@@H]21 [Example 378, 3-(1,1′-dimethylheptyl)-6aR,7,10,10aR-tetrahydro-1-hydroxy-6,6-dimethyl-6H-dibenzo[b,d]pyran-9-methanol]
- fold induction at 35 µM [3]: 0.21

Molecule: CS(=O)(=O)O.Cc1c(C(=O)c2cccc3ccccc23)c2cccc3c2n1[C@H](CN1CCOCC1)CO3 [Example 379, [(3R)-2,3-dihydro-5-methyl-3-(4-morpholinylmethyl)pyrrolo[1,2,3-de]-1,4-benzoxazin-6-yl]-1-naphthalenyl-methanone, methanesulfonate]
- Induction Fold [3]: 0.21 Fold

Molecule: CCCc1cc(O)c2c(c1)OC(C)(CCC=C(C)C)C=C2 (stereo not shown) [Example 381, 2-methyl-2-(4-methylpent-3-enyl)-7-propylchromen-5-ol]
- EC50 ([1]; Homo sapiens, COLO 205, 48 h): 32 µM
- Fold Induction ([1]; 0-100 μM, 48 hours): 3.3 Fold

Molecule: CCCCCc1cc2c3c(c1)OC(C)(C)C1CCC(C)(CC31)O2 (stereo not drawn) [Example 382, (6aα,9β,10aα)-6a,7,8,9,10,10a-hexahydro-6,6,9-trimethyl-3-pentyl-1,9-epoxy-6H-dibenzo[b,d]pyran]
- Fold Induction ([1]; 0-100 μM, 48 hours): 1.3 Fold

Molecule: CCCCCc1cc(O)c2c(c1)OC(C)(C)[C@@H]1CC=C(C)C[C@@H]21 [Example 383, 6aR,7,10,10aR-tetrahydro-6,6,9-trimethyl-3-pentyl-6H-dibenzo[b,d]pyran-1-ol]
- Fold Induction ([1]; 0-100 μM, 48 hours): 4.1 Fold
- EC50 [1, 4]: 27 µM

Molecule: CCCCCc1cc(O)c2c(c1)OC(C)(C)[C@@H]1CCC(C)=C[C@@H]21 [Example 384, 6aR,7,8,10aR-tetrahydro-6,6,9-trimethyl-3-pentyl-6H-dibenzo[b,d]pyran-1-ol]
- Fold Induction ([1]; 0-100 μM, 48 hours): 6.1 Fold
- EC50 [1, 4]: 30 µM

Molecule: CCCc1cc(O)c2c(c1)OC(C)(C)c1ccc(C)cc1-2 [Example 385, 6,6,9-trimethyl-3-propyl-6H-dibenzo[b,d]pyran-1-ol]
- EC50 ([1]; Homo sapiens, COLO 205, 48 h): 20 µM
- Fold Induction ([1]; 0-100 μM, 48 hours): 3.9 Fold

Molecule: C=C(C)[C@@H]1CCC(C)=C[C@H]1c1c(O)cc(CCC)cc1O [Example 386, 2-[(1R,6R)-3-methyl-6-(1-methylethenyl)-2-cyclohexen-1-yl]-5-propyl-1,3-benzenediol]
- EC50 ([1]; Homo sapiens, COLO 205, 48 h): 19 µM
- Fold Induction ([1]; 0-100 μM, 48 hours): 5.5 Fold

Molecule: CCCCCc1cc(OC)c2c(c1)OC(C)(C)c1ccc(C)cc1-2 [Example 387, 1-methoxy-6,6,9-trimethyl-3-pentyl-6H-dibenzo[b,d]pyran]
- EC50 ([1]; Homo sapiens, COLO 205, 48 h): 30 µM
- Fold Induction ([1]; 0-100 μM, 48 hours): 2.3 Fold

Molecule: CC(C)=CCC/C(C)=C/Cc1c(O)cc(C)cc1O [Example 388, 2-[(2E)-3,7-dimethyl-2,6-octadien-1-yl]-5-methyl-1,3-benzenediol]
- EC50 ([1]; Homo sapiens, COLO 205, 48 h): 36 µM
- Fold Induction ([1]; 0-100 μM, 48 hours): 2.7 Fold

Molecule: CC(C)=CCC/C(C)=C/Cc1c(O)cc(C)c(C(=O)O)c1O [Example 389, 3-[(2E)-3,7-dimethyl-2,6-octadien-1-yl]-2,4-dihydroxy-6-methyl-benzoic acid]
- Fold Induction ([1]; 0-100 μM, 48 hours): 2.6 Fold

Molecule: CCCCCc1cc(O)c2c(c1)OC1(C)CCC3C1C2C3(C)C [Example 390, (1aS,1a^1R,3aR,8bR)-1,1,3a-trimethyl-6-pentyl-1a,1a^1,2,3,3a,8b-hexahydro-1H-4-oxabenzo[f]cyclobuta[cd]inden-8-ol]
- EC50 ([1]; Homo sapiens, COLO 205, 48 h): 20 µM
- Fold Induction ([1]; 0-100 μM, 48 hours): 4.2 Fold

Molecule: C=C(C)[C@@H]1CCC(C)=C[C@H]1c1c(O)cc(CCCCC)cc1O [cannabidiol (CBD)]
- EC50 ([1]; read-out: EC50 of MHC-I induction, COLO 205, 48 hours): 10 µM

Molecule: (1-butyl-6-methoxy-1H-indol-3-yl)-1-naphthalenyl-methanone [Example 107]
- Induction Fold [3]: 2.39 Fold

Molecule: (1-ethyl-1H-indol-3-yl)-1-naphthalenyl-methanone [Example 272]
- Induction Fold [3]: 1.53 Fold

Molecule: (1-heptyl-5-phenyl-1H-pyrrol-3-yl)-1-naphthalenyl-methanone [Example 212]
- Induction Fold [3]: 1.83 Fold

Molecule: (1-hexyl-1H-indol-3-yl)-1-naphthalenyl-methanone [Example 140]
- Induction Fold [3]: 2.19 Fold

Molecule: (1-hexyl-1H-pyrrol-3-yl)-1-naphthalenyl-methanone [Example 72]
- Induction Fold [3]: 2.68 Fold

Molecule: (1-hexyl-5-phenyl-1H-pyrrol-3-yl)-1-naphthalenyl-methanone [Example 82]
- Induction Fold [3]: 2.54 Fold

Molecule: (2-ethyl-1-pentyl-1H-indol-3-yl)-1-naphthalenyl-methanone [Example 154]
- Induction Fold [3]: 2.11 Fold

Molecule: [1-(5-fluoropentyl)-6-nitro-1H-indol-3-yl]-1-naphthalenyl-methanone [Example 280]
- Induction Fold [3]: 1.49 Fold

Molecule: [2-methyl-1-(1-methylhexyl)-1H-indol-3-yl]-1-naphthalenyl-methanone [Example 137]
- Induction Fold [3]: 2.22 Fold

Molecule: [5-(2-chlorophenyl)-1-pentyl-1H-pyrrol-3-yl]-1-naphthalenyl-methanone [Example 63]
- Induction Fold [3]: 2.77 Fold

Molecule: [5-(3-fluorophenyl)-1-pentyl-1H-pyrrol-3-yl]-1-naphthalenyl-methanone [Example 109]
- Induction Fold [3]: 2.37 Fold

B1: Interferon-γ: a natural cytokine known to stimulate MHC class I expression in many mammalian cells (protein, UniProt P01579 24-161, looked up)
Interferon gamma: QDPYVKEAENLKKYFNAGHSDVADNGTLFLGILKNWKEESDRKIMQSQIVSFYFKLFKNFKDDQSIQKSVETIKEDMNVKFFNSNKKKRDDFEKLTNYSVTDLNVQRKAIHELIQVMAELSPAAKTGKRKRSQMLFRG
- Fold Induction ([2]; COLO 205, 0.004 ng/mL): 0.98
- Fold Induction ([2]; COLO 205, 0.040 ng/mL): 2.07
- Fold Induction ([2]; COLO 205, 1.000 ng/mL): 3.99
